From ChEMBL document CHEMBL3091409, “Potent P2Y1 urea antagonists bearing various cyclic amine scaffolds” (Bioorg Med Chem Lett, 2013)
Values after ≈ are worked out from the molar mass of the structure shown.

Legend:
P2Y purinoceptor 1 = P2Y purinoceptor 1 (Homo sapiens, UniProt P47900); assay: Displacement of [beta-33P]-2MeS-ADP from human P2Y1 receptor transfected in HEK293 cells after 1 hr by scintillation counting method; assay type: cell-based
[1] = target: 5-hydroxytryptamine receptor 2A (Homo sapiens) (UniProt P28223); assay: Inhibition of 5-HT2A receptor (unknown origin); conditions: concentration not given here
Sequence of 5-hydroxytryptamine receptor 2A (Homo sapiens) (P28223 whole entry): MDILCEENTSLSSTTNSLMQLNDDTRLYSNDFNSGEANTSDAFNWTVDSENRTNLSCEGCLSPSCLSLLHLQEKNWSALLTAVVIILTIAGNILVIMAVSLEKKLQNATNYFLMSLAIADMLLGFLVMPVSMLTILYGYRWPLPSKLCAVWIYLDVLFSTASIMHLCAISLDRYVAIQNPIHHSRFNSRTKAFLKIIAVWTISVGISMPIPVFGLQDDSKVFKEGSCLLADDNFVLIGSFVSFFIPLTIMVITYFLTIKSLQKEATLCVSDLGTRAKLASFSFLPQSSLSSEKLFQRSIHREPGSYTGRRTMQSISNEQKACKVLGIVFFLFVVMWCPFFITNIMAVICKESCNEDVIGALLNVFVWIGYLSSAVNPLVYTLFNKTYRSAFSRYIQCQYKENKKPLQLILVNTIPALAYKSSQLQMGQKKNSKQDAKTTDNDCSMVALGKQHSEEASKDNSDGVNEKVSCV

[2] = Volume of distribution at steady state in rat at 2 mg/kg, iv and 5 mg/kg, po; assay type: ADME, organism-based; conditions: in vivo, read-out: Vdss
Platelet = assay: Inhibition of ADP-induced platelet aggregation in human platelet rich plasma; assay type: functional
[3] = Clearance in rat at 2 mg/kg, iv and 5 mg/kg, po; assay type: ADME, organism-based; conditions: in vivo
[4] = Metabolic stability in rat liver microsomes assessed as compound remaining after 10 mins; assay type: ADME; conditions: read-out: Stability
[5] = Permeability of the compound by PAMPA; assay type: ADME; conditions: read-out: permeability
[6] = Half life in rat at 2 mg/kg, iv and 5 mg/kg, po; assay type: ADME, organism-based; conditions: in vivo
[7] = target: Sodium-dependent noradrenaline transporter (Homo sapiens) (UniProt P23975); assay: Inhibition of NET (unknown origin); conditions: concentration not given here
Sequence of Sodium-dependent noradrenaline transporter (Homo sapiens) (P23975 whole entry): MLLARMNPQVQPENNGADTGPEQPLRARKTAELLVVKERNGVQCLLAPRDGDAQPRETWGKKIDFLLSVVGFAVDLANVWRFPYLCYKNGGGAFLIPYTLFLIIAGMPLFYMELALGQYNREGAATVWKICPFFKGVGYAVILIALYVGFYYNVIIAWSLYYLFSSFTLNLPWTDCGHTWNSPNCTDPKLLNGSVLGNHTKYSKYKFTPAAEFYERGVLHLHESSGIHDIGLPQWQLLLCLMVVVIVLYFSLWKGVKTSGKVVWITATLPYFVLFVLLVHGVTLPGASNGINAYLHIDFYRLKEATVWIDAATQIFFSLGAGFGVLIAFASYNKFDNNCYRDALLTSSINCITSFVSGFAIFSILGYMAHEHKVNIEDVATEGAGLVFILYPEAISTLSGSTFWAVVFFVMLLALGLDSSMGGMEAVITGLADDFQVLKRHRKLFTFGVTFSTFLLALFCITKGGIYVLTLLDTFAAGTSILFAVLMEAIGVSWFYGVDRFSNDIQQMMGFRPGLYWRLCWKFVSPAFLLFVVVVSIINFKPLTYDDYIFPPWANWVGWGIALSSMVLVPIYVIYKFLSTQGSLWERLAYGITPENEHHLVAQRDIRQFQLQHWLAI

[8] = Oral bioavailability in rat at 5 mg/kg; assay type: ADME, organism-based; conditions: in vivo
[9] = Aqueous solubility of the compound in partially crystalline form in […] phosphate buffer at pH 6.5; assay type: physicochemical
[10] = Plasma protein binding in human plasma; assay type: ADME, cell-free; conditions: read-out: PPB (converted)
[11] = target: D(2) dopamine receptor (Homo sapiens) (UniProt P14416); assay: Inhibition of D2 receptor (unknown origin); conditions: concentration not given here
Sequence of D(2) dopamine receptor (Homo sapiens) (P14416 whole entry): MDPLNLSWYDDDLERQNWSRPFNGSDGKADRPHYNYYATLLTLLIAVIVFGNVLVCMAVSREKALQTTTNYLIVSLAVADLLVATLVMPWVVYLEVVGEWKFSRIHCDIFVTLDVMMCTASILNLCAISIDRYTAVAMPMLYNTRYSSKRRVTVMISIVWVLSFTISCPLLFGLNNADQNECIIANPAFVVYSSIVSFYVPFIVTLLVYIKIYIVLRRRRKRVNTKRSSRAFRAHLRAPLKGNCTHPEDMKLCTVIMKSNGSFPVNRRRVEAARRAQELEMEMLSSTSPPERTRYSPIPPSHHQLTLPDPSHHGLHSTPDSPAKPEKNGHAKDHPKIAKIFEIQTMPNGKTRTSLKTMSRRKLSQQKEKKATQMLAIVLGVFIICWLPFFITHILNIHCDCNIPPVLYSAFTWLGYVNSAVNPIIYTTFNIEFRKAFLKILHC

[12] = target: Voltage-gated inwardly rectifying potassium channel KCNH2 (Homo sapiens, UniProt Q12809); assay: Inhibition of human ERG flux
Sequence of Voltage-gated inwardly rectifying potassium channel KCNH2 (Q12809 whole entry): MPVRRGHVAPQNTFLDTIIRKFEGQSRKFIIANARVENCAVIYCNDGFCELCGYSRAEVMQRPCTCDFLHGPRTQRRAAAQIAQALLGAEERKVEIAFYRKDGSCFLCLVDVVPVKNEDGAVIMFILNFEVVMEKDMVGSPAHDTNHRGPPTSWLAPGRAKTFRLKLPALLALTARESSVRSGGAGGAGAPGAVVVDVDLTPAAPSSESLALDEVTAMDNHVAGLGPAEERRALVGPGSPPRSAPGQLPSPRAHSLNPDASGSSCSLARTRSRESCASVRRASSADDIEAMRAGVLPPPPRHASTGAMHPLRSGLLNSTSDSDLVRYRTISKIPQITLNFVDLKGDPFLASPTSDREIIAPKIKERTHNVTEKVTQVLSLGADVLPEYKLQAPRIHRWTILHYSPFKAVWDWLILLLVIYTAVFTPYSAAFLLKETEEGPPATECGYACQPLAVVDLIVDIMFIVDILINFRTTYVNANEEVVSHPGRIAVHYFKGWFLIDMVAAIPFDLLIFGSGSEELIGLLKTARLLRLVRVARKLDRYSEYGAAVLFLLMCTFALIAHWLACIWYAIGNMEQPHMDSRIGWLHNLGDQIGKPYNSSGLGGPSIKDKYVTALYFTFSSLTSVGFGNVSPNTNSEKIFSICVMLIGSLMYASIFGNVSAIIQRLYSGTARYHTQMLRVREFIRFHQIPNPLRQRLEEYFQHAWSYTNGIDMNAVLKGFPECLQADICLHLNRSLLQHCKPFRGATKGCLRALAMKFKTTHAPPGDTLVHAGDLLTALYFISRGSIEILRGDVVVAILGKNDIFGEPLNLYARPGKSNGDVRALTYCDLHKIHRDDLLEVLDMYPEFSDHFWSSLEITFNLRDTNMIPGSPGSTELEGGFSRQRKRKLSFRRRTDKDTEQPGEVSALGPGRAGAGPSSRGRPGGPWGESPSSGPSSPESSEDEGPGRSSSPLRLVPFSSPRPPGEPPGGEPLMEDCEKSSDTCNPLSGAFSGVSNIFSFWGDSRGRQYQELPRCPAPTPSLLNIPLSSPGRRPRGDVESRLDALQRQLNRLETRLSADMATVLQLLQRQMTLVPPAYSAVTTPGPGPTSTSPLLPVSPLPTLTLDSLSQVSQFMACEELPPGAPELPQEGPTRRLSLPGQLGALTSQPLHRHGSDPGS

[13] = Aqueous solubility of the compound in amorphous form in […] phosphate buffer at pH 6.5; assay type: physicochemical
[14] = Permeability from apical to basolateral side of human Caco2 cells; assay type: ADME, cell-based; conditions: Caco-2, read-out: permeability
[15] = Aqueous solubility of the compound in crystalline form in […] phosphate buffer at pH 6.5; assay type: physicochemical

Sequence of P2Y purinoceptor 1 (P47900 whole entry): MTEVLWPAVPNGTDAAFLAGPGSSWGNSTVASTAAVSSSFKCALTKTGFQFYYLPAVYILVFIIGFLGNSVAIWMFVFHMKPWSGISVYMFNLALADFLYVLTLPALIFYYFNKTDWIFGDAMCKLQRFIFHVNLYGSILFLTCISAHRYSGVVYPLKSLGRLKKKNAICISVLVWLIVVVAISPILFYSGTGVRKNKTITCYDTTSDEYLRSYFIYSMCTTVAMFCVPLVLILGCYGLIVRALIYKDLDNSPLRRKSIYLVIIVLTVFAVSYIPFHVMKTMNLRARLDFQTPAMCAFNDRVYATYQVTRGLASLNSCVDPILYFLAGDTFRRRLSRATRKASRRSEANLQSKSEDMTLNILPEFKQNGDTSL

| Structure (SMILES) | Ki (P2Y purinoceptor 1) [nM] | IC50 (Platelet) [nM] | also measured |
| --- | --- | --- | --- |
| O=C(Nc1ccc(OC(F)(F)F)cc1)Nc1cccnc1Oc1cccc2c1CCNC2 | 3000 |  |  |
| CC(C)(C)CN1CCC(c2ccccc2Oc2ncccc2NC(=O)Nc2ccc(OC(F)(F)F)cc2)CC1 | 16 | 2400 | inhibition [1]: > 50%; Vd [2]: 14 L/kg; clearance [3]: 18 mL/min/kg; remaining at 10 min [4]: 96%; Papp [5]: 28.6 ×10⁻⁶ cm/s; half-life [6]: 11 h; inhibition [7]: > 50%; bioavailability [8]: 89%; solubility [9]: 105 µg/mL (≈ 194 µM); fraction unbound [10]: 0.001; inhibition [11]: > 50%; IC50 [12]: 4600 nM |
| O=C(Nc1ccc(OC(F)(F)F)cc1)Nc1cccnc1Oc1cccc2c1CCN(Cc1ccc(O)cc1)C2 | 3400 |  |  |
| O=C(Nc1ccc(OC(F)(F)F)cc1)Nc1cccnc1Oc1cccc2c1CCN(Cc1cccc(O)c1)C2 | 2200 |  |  |
| CC(C)(C)CN1Cc2cccc(Oc3ncccc3NC(=O)Nc3ccc(OC(F)(F)F)cc3)c2C1 | 29 | > 10000 |  |
| O=C(Nc1ccc(OC(F)(F)F)cc1)Nc1cccnc1Oc1cccc2c1CCN(Cc1ccccc1)C2 | 55 |  |  |
| O=C(Nc1ccc(OC(F)(F)F)cc1)Nc1cccnc1Oc1cccc2c1CCN(CCc1ccccc1)C2 | 290 |  |  |
| CC(C)CN1CCC(c2ccccc2Oc2ncccc2NC(=O)Nc2ccc(OC(F)(F)F)cc2)CC1 | 150 | 7600 | IC50 [12]: 6000 nM |
| O=C(Nc1ccc(OC(F)(F)F)cc1)Nc1cccnc1Oc1cccc2c1CCN(Cc1ccccn1)C2 | 1100 |  |  |
| CCN1CCc2c(cccc2Oc2ncccc2NC(=O)Nc2ccc(OC(F)(F)F)cc2)C1 | 1700 |  |  |
| O=C(Nc1ccc(OC(F)(F)F)cc1)Nc1cccnc1Oc1ccccc1C1CCN(Cc2ccccc2)CC1 | 98 | 12700 |  |
| CN1Cc2cccc(Oc3ncccc3NC(=O)Nc3ccc(OC(F)(F)F)cc3)c2C1C(C)(C)C (stereo not given) | 57 | 1200 | remaining at 10 min [4]: 6%; Papp [5]: 78.4 ×10⁻⁶ cm/s; solubility [13]: 270 µg/mL (≈ 539 µM); fraction unbound [10]: 0.003; Papp A→B [14]: < 1.5 ×10⁻⁶ cm/s; IC50 [12]: 7200 nM |
| CN1Cc2cccc(Oc3ncccc3NC(=O)Nc3ccc(OC(F)(F)F)cc3)c2C1 | 3700 |  |  |
| CC(C)(C)CN1CCc2c(cccc2Oc2ncccc2NC(=O)Nc2ccc(OC(F)(F)F)cc2)C1 | 11 | 3100 | solubility [15]: 3 µg/mL (≈ 5.83 µM); remaining at 10 min [4]: 27% |
| CC(C)CN1Cc2cccc(Oc3ncccc3NC(=O)Nc3ccc(OC(F)(F)F)cc3)c2C1 | 68 | > 10000 |  |
| O=C(Nc1ccc(OC(F)(F)F)cc1)Nc1cccnc1Oc1cccc2c1CCN(Cc1ccccc1O)C2 | 260 |  |  |
| CC(C)CN1CCc2c(cccc2Oc2ncccc2NC(=O)Nc2ccc(OC(F)(F)F)cc2)C1 | 60 |  |  |
| O=C(Nc1ccc(OC(F)(F)F)cc1)Nc1cccnc1Oc1cccc2c1CCN(Cc1ccncc1)C2 | 1040 |  |  |
| CC(C)(C)CCN1CCc2c(cccc2Oc2ncccc2NC(=O)Nc2ccc(OC(F)(F)F)cc2)C1 | 190 |  |  |
| CC(C)N1CCc2c(cccc2Oc2ncccc2NC(=O)Nc2ccc(OC(F)(F)F)cc2)C1 | 560 |  |  |
| O=C(Nc1ccc(OC(F)(F)F)cc1)Nc1cccnc1Oc1cccc2c1CCN(Cc1cccnc1)C2 | 1200 |  |  |
| CCCN1CCc2c(cccc2Oc2ncccc2NC(=O)Nc2ccc(OC(F)(F)F)cc2)C1 | 620 |  |  |
